Measured values published in ChEMBL document CHEMBL5385972, “New azole derivatives linked to indole/indoline moieties combined with FLC against drug-resistant Candida albicans” (2024).
≈ marks a conversion by molar mass, not a printed value. Calls of active or inactive are those of the source. The rule behind the calls is not given here.

Experiments:
Candida albicans [1] = test: Synergistic antifungal activity against FLC-resistant Candida albicans SC5314 assessed as fractional inhibitory concentration index incubated for 24 hrs in presence of fluconazole by microdilution assay; type: functional
Candida albicans [2] = test: Antifungal activity against Candida albicans SC5314 assessed as inhibition of fungal growth incubated for 24 hrs by microdilution assay; type: functional
Candida albicans [3] = test: Synergistic antifungal activity against Candida albicans SC5314 assessed as fractional inhibitory concentration index incubated for 24 hrs in presence of fluconazole by microdilution assay; type: functional
Candida albicans [4] = test: Synergistic antifungal activity against FLC-resistant Candida albicans SC5314 assessed as inhibition of fungal growth incubated for 24 hrs in presence of fluconazole by microdilution assay; type: functional
Candida albicans [5] = test: Synergistic antifungal activity against Candida albicans SC5314 assessed as inhibition of fungal growth incubated for 24 hrs in presence of fluconazole by microdilution assay; type: functional
Candida albicans [6] = test: Synergistic antifungal activity against Candida albicans SC5314 assessed as reduction in ATP production incubated for 16 hrs in presence of fluconazole by chemiluminescence assay; type: functional, organism-based
Candida albicans [7] = test: Synergistic antifungal activity against Candida albicans SC5314 assessed as leakage of intracellular debris incubated for 24 hrs in presence of fluconazole by transmission electron microscopic analysis; type: functional, organism-based
Candida albicans [8] = test: Synergistic antifungal activity against Candida albicans SC5314 assessed as appearance of incomplete cell wall structure incubated for 24 hrs in presence of fluconazole by transmission electron microscopic analysis; type: functional, organism-based
Candida albicans [9] = test: Synergistic antifungal activity against Candida albicans SC5314 assessed as decrease in intracellular mitochondrial membrane potential incubated for 16 hrs in presence of fluconazole by JC-1 staining based fluorescence assay; type: functional, organism-based
Cell membrane [10] = test: Induction of […] membrane permeabilization in Candida albicans SC5314 by measuring red fluorescence incubated for 16 to 24 hrs in presence of fluconazole by propyl iodide dye based multifunctional microplate reader analysis; type: subcellular; conditions: time 16-24 hrs
Candida albicans [11] = test: Inhibition of mitochondrial function in Candida albicans SC5314 assessed as reduction in ATP production at 3 to 9 ug/ml incubated for 16 hrs by chemiluminescence assay; type: functional; conditions: dose 3-9 µg/ml
Candida albicans [12] = test: Synergistic antifungal activity against FLC-resistant Candida albicans SC5314 assessed as inhibition of fungal growth incubated for 48 hrs in presence of fluconazole by time-kill assay; type: functional, organism-based
Cell membrane [13] = test: Induction of […] membrane permeabilization in Candida albicans SC5314 by measuring red fluorescence at 3 to 9 ug/ml incubated for 16 to 24 hrs by propyl iodide dye based fluorescence microscopic analysis; type: subcellular; conditions: dose 3-9 µg/ml, time 16-24 hrs
Candida albicans [14] = test: Antifungal activity against Candida albicans SC5314 assessed as inhibition of fungal growth at 3 to 9 ug/ml incubated for 24 hrs by crystal violet staining based inverted microscopic analysis; type: functional, organism-based; conditions: dose 3-9 µg/ml
Candida albicans [15] = test: Synergistic antifungal activity against Candida albicans SC5314 assessed as increase in intracellular ROS production incubated for 16 hrs in presence of fluconazole by DCFH-DA staining based ELISA; type: functional, organism-based
Candida albicans [16] = test: Antifungal activity against Candida albicans SC5314 assessed as decrease in mycelial growth at 3 to 9 ug/ml incubated for 24 hrs by crystal violet staining based inverted microscopic analysis; type: functional, organism-based; conditions: dose 3-9 µg/ml
Candida albicans [17] = test: Antifungal activity against FLC-resistant Candida albicans SC5314 assessed as inhibition of fungal growth at 3 to 9 ug/ml incubated for 48 hrs by time-kill assay; type: functional, organism-based; conditions: dose 3-9 µg/ml
Cell membrane [18] = test: Induction of […] membrane permeabilization in Candida albicans SC5314 by measuring red fluorescence incubated for 16 to 24 hrs in presence of fluconazole by propyl iodide dye based fluorescence microscopic analysis; type: subcellular; conditions: time 16-24 hrs
Candida albicans [19] = test: Antifungal activity against Candida albicans SC5314 assessed as morphological change at 3 to 9 ug/ml incubated for 24 hrs by transmission electron microscopic analysis; type: functional, organism-based; conditions: dose 3-9 µg/ml
Cell membrane [20] = test: Induction of […] membrane permeabilization in Candida albicans SC5314 by measuring red fluorescence at 3 ug/ml incubated for 16 to 24 hrs by propyl iodide dye based fluorescence microscopic analysis; type: subcellular; conditions: dose 3.0 µg/ml, time 16-24 hrs
Candida albicans [21] = test: Inhibition of mitochondrial function in Candida albicans SC5314 assessed as reduction in ATP production at 3 ug/ml incubated for 16 hrs by chemiluminescence assay; type: functional; conditions: dose 3.0 µg/ml
Candida albicans [22] = test: Antifungal activity against Candida albicans SC5314 assessed as morphological change at 3 ug/ml incubated for 24 hrs by transmission electron microscopic analysis; type: functional, organism-based; conditions: dose 3.0 µg/ml
Candida albicans [23] = test: Antifungal activity against FLC-resistant Candida albicans SC5314 assessed as inhibition of fungal growth at 3 ug/ml incubated for 48 hrs by time-kill assay; type: functional, organism-based; conditions: dose 3.0 µg/ml
Candida albicans [24] = test: Antifungal activity against FLC-resistant Candida albicans SC5314 assessed as inhibition of fungal growth incubated for 24 hrs by microdilution assay; type: functional

Structure (SMILES) | fractional inhibitory concentration index (FICI) (Candida albicans [1]) | MIC50 (Candida albicans [2]) | fractional inhibitory concentration index (FICI) (Candida albicans [3]) | MIC50 (Candida albicans [4]) | MIC50 (Candida albicans [5]) | other results
O=C(CCn1ccc2ccccc21)NCCNCC(O)COC(Cn1cncn1)c1ccc(F)cc1F (stereo not given) | 0.25 | > 200 µg/mL | 6.26 | 50 µg/mL | 8.42 µg/mL | –
COc1ccc2ccn(CCC(=O)NCCNCC(O)COC(Cn3cncn3)c3ccc(F)cc3F)c2c1 (stereo not given) | 0.26 | > 200 µg/mL | 1.39 | 52.5 µg/mL | 1.87 µg/mL | –
O=C(CCN1CCc2cc(Br)ccc21)NCCNCC(O)COC(Cn1cncn1)c1ccc(F)cc1F (stereo not given) | 0.01 | > 200 µg/mL | 0.85 | 2.82 µg/mL | 1.14 µg/mL | Activity (Candida albicans [6]): Dose-Dependent Effect; Activity (Candida albicans [7]): Dose-Dependent Effect; Activity (Candida albicans [8]): Dose-Dependent Effect; Activity (Candida albicans [9]): Dose-Dependent Effect; Activity (Cell membrane [10]): Dose-Dependent Effect; Activity (Candida albicans [11]): inactive; Activity (Candida albicans [12]): Dose-Dependent Effect; Activity (Cell membrane [13]): inactive; Activity (Candida albicans [14]): inactive; Activity (Candida albicans [15]): Dose-Dependent Effect; Activity (Candida albicans [16]): inactive; Activity (Candida albicans [17]): inactive; Activity (Cell membrane [18]): Dose-Dependent Effect; Activity (Candida albicans [19]): inactive
O=C(CCn1ccc2cc(Cl)ccc21)NCCNCC(O)COC(Cn1cncn1)c1ccc(F)cc1F (stereo not given) | 0.09 | > 200 µg/mL | 0.62 | 18.9 µg/mL | 0.83 µg/mL | –
O=C(CCN1CCc2cc(Cl)ccc21)NCCNCC(O)COC(Cn1cncn1)c1ccc(F)cc1F (stereo not given) | 0.07 | > 200 µg/mL | 1.31 | 14 µg/mL | 1.77 µg/mL | –
O=C(CCn1ccc2ccc(Br)cc21)NCCNCC(O)COC(Cn1cncn1)c1ccc(F)cc1F (stereo not given) | 0.06 | > 200 µg/mL | 0.71 | 11.5 µg/mL | 0.95 µg/mL | –
O=C(CCN1CCc2ccccc21)NCCNCC(O)COC(Cn1cncn1)c1ccc(F)cc1F (stereo not given) | 0.21 | > 200 µg/mL | 4.34 | 42.6 µg/mL | 5.84 µg/mL | –
COc1ccc2c(c1)N(CCC(=O)NCCNCC(O)COC(Cn1cncn1)c1ccc(F)cc1F)CC2 (stereo not given) | 0.56 | > 200 µg/mL | 8.64 | 111 µg/mL | 11.6 µg/mL | –
CC1Cc2ccccc2N1CCC(=O)NCCNCC(O)COC(Cn1cncn1)c1ccc(F)cc1F (stereo not given) | 0.34 | > 200 µg/mL | 6.85 | 67.7 µg/mL | 9.22 µg/mL | –
O=C(CCN1CCc2ccc(Cl)cc21)NCCNCC(O)COC(Cn1cncn1)c1ccc(F)cc1F (stereo not given) | 0.05 | > 200 µg/mL | 0.26 | 9.22 µg/mL | 0.35 µg/mL | –
Cc1ccc2c(c1)CCN2CCC(=O)NCCNCC(O)COC(Cn1cncn1)c1ccc(F)cc1F (stereo not given) | 0.05 | > 200 µg/mL | 1.51 | 10.2 µg/mL | 2.03 µg/mL | –
O=C(CCn1ccc2ccc(F)cc21)NCCNCC(O)COC(Cn1cncn1)c1ccc(F)cc1F (stereo not given) | 0.17 | > 200 µg/mL | 0.59 | 33.9 µg/mL | 0.79 µg/mL | –
O=C(CCn1ccc2cc(Br)ccc21)NCCNCC(O)COC(Cn1cncn1)c1ccc(F)cc1F (stereo not given) | 0.06 | > 200 µg/mL | 0.63 | 12.9 µg/mL | 0.85 µg/mL | –
O=C(CCn1ccc2ccc(Cl)cc21)NCCNCC(O)COC(Cn1cncn1)c1ccc(F)cc1F (stereo not given) | 0.1 | > 200 µg/mL | 0.66 | 20 µg/mL | 0.89 µg/mL | –
O=C(CCN1CCc2ccc(F)cc21)NCCNCC(O)COC(Cn1cncn1)c1ccc(F)cc1F (stereo not given) | 0.09 | > 200 µg/mL | 1.99 | 18.9 µg/mL | 2.68 µg/mL | –
OC(Cn1cncn1)(Cn1cncn1)c1ccc(F)cc1F [FLUCONAZOLE] | – | 1.35 µg/mL (≈ 4.41 µM) | – | – | – | Activity (Cell membrane [20]): Active; Activity (Candida albicans [21]): inactive; Activity (Candida albicans [22]): Active; Activity (Candida albicans [23]): Active; MIC50 (Candida albicans [24]): > 200 µg/mL
O=C(CCN1CCc2ccc(Br)cc21)NCCNCC(O)COC(Cn1cncn1)c1ccc(F)cc1F (stereo not given) | 0.04 | > 200 µg/mL | 0.44 | 8.92 µg/mL | 0.6 µg/mL | –
